Here are results for 31 molecules from patent publication US20230271941A1, “COMPOUNDS AND COMPOSITIONS FOR TREATING CONDITIONS ASSOCIATED WITH STING ACTIVITY” (IFM Due, Inc., priority 2020, published 2023).

The test deals with T1, hSTING (Homo sapiens, UniProt Q86WV6, G230A/H232R/R293Q/R71H).
T1 construct: host or cells: THP1-Dual KO-IFNAR2 cells
As to the kind of experiment: STING reporter assay: THP1-Dual KO-IFNAR2 cells stimulated with 2′3′cGAMP, luciferase reporter activity. The note with it: 15 μM 2′3′cGAMP transfected with Lipofectamine 2000, 24 h, luciferase reporter (QUANTI-Luc). Type of test: cell-based. On the procedure:
STING pathway activation by the compounds described herein was measured using THP1-Dual™ cells (KO-IFNAR2).
THP1-Dual™ KO-IFNAR2 Cells (obtained from invivogen) were maintained in RPMI, 10% FCS, 5 ml P/S, 2 mM L-glut, 10 mM Hepes, and 1 mM sodium pyruvate. Compounds were spotted in empty 384 well tissue culture plates (Greiner 781182) by Echo for a final concentration of 0.0017-100 μM. Cells were plated into the TC plates at 40 μL per well, 2×10E6 cells/mL. For activation with STING ligand, 2′3′cGAMP (MW 718.38, obtained from Invivogen), was prepared in Optimem media.
The following solutions were prepared for each 1×384 plate: • Solution A: 2 mL Optimem with one of the following stimuli: • 60 μL of 10 mM 2′3′cGAMP→150 μM stock • Solution B: 2 mL Optimem with 60 μL Lipofectamine 2000→Incubate 5 min at RT
2 mL of solution A and 2 ml Solution B was mixed and incubated for 20 min at room temperature (RT). 20 μL of transfection solution (A+B) was added on top of the plated cells, with a final 2′3′cGAMP concentration of 15 μM. The plates were then centrifuged immediately at 340 g for 1 minute, after which they were incubated at 37° C., 5% CO2, >98% humidity for 24 h. Luciferase reporter activity was then measured. EC50 values were calculated by using standard methods known in the art.
Luciferase reporter assay: 10 μL of supernatant from the assay was transferred to white 384-plate with flat bottom and squared wells. One pouch of QUANTI-Luc™ Plus was dissolved in 25 mL of water. 100 μL of QLC Stabilizer per 25 mL of QUANTI-Luc™Plus solution was added. 50 μL of QUANTI-Luc™ Plus/QLC solution per well was then added. Luminescence was measured on a Platereader (e.g., Spectramax I3X (Molecular Devices GF3637001)).
Luciferase reporter activity was then measured. EC50 values were calculated by using standard methods known in the art.

T1 sequence (Q86WV6 whole entry R71H/G230A/H232R/R293Q): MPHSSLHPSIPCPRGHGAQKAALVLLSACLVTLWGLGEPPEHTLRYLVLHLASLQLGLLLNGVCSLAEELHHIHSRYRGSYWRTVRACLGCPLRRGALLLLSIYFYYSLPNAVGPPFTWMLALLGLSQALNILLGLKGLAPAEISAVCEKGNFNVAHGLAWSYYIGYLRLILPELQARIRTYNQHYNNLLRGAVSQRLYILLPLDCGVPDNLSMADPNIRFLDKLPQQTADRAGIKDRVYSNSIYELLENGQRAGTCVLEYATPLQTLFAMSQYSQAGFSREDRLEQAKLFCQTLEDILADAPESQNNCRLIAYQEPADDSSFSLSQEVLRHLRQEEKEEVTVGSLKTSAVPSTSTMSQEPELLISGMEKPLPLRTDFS

In turn, `N#Cc1cccc(-c2cc(C(=O)Nc3c[nH]c4cc(F)c(F)cc34)no2)c1` [Compound 123, 5-(3-cyanophenyl)-N-(5,6-difluoro-1H-indol-3-yl)isoxazole-3-carboxamide] came in with an EC50 of 200 to 1000 nM.

On to `COc1ccc2[nH]cc(NC(=O)c3ccn(Cc4ccc(C(F)(F)F)cc4)n3)c2n1` [Compound 134, N-(5-methoxy-1H-pyrrolo[3,2-b]pyridin-3-yl)-1-(4-(trifluoromethyl)benzyl)-1H-pyrazole-3-carboxamide], for which the 50% effective concentration (EC50) fell in the range of 1000 to 5000 nM.

With `O=C(Nc1c[nH]c2cc(F)c(Cl)cc12)c1cnn(Cc2ccc(C(F)(F)F)cc2)c1` [Compound 141, N-(5-chloro-6-fluoro-1H-indol-3-yl)-1-(4-(trifluoromethyl)benzyl)-1H-pyrazole-4-carboxamide], the EC50 was in the range of 40 to 200 nM.

The molecule `O=C(Nc1c[nH]c2cc(F)c(F)cc12)c1csc(-c2ccc(OC(F)(F)F)cc2)n1` [Compound 177, N-(5,6-difluoro-1H-indol-3-yl)-2-(4-(trifluoromethoxy)phenyl)thiazole-4-carboxamide] showed an EC50 of 1000 to 5000 nM.

In the case of `O=C(Nc1c[nH]c2cc(F)c(F)cc12)c1cc(Cc2ccc(C(F)(F)F)cc2)[nH]n1` [Compound 145, N-(5,6-difluoro-1H-indol-3-yl)-5-(4-(trifluoromethyl)benzyl)-1H-pyrazole-3-carboxamide], the concentration giving a half-maximal response (EC50) lay within 200 to 1000 nM.

In turn, `O=C(Nc1c[nH]c2cc(F)c(F)cc12)c1cnn(CCOc2cncc(C(F)(F)F)c2)c1` [Compound 161, N-(5,6-difluoro-1H-indol-3-yl)-1-(2-((5-(trifluoromethyl)pyridin-3-yl)oxy)ethyl)-1H-pyrazole-4-carboxamide] showed a concentration for a half-maximal effect (EC50) of 200 to 1000 nM.

Molecule `O=C(Nc1c[nH]c2cc(F)c(F)cc12)c1nn(Cc2ccc(C(F)(F)F)cc2)c(=O)[nH]1` [Compound 142, N-(5,6-difluoro-1H-indol-3-yl)-5-oxo-1-(4-(trifluoromethyl)benzyl)-4,5-dihydro-1H-1,2,4-triazole-3-carboxamide] gave an EC50 of 1000 to 5000 nM.

`O=C(Nc1c[nH]c2cc(F)c(F)cc12)c1cc(CCc2ccc(C(F)(F)F)cc2)no1` [Compound 150, N-(5,6-difluoro-1H-indol-3-yl)-3-(4-(trifluoromethyl)phenethyl)isoxazole-5-carboxamide] registered an EC50 of 40 to 200 nM.

`O=C(Nc1c[nH]c2cc(F)c(F)cc12)c1cn(-c2ccc(C(F)(F)F)cc2)nn1` [Compound 106, N-(5,6-difluoro-1H-indol-3-yl)-1-(4-(trifluoromethyl)phenyl)-1H-1,2,3-triazole-4-carboxamide]: the EC50 lay within 200 to 1000 nM.

In the case of `O=C(Nc1c[nH]c2cc(F)c(F)cc12)c1csc(Cc2ccccc2)n1` [Compound 112, 2-benzyl-N-(5,6-difluoro-1H-indol-3-yl)-1,3-thiazole-4-carboxamide], the EC50 lay in the range of 1000 to 5000 nM.

On to `O=C(Nc1c[nH]c2cc(F)c(F)cc12)c1cc(-c2ccc(Cl)cc2)no1` [Compound 171, 3-(4-chlorophenyl)-N-(5,6-difluoro-1H-indol-3-yl)isoxazole-5-carboxamide], for which the EC50 was 200 to 1000 nM.

Regarding `O=C(Nc1c[nH]c2cc(F)c(F)cc12)c1ccn(CCOc2cccnc2)n1` [Compound 147, N-(5,6-difluoro-1H-indol-3-yl)-1-(2-(pyridin-3-yloxy)ethyl)-1H-pyrazole-3-carboxamide], the EC50 is 5000 to 100000 nM.

`O=C(Nc1c[nH]c2c(F)cncc12)c1cnn(Cc2ccc(C(F)(F)F)cc2)c1` [Compound 128, N-(7-fluoro-1H-pyrrolo[3,2-c]pyridin-3-yl)-1-(4-(trifluoromethyl)benzyl)-1H-pyrazole-4-carboxamide]: the EC50 was 200 to 1000 nM.

For `Cc1cc(Cn2cc(C(=O)Nc3c[nH]c4ccc(Cl)cc34)cn2)cnc1OCC(F)(F)F` [Compound 160, N-(5-chloro-1H-indol-3-yl)-1-((5-methyl-6-(2,2,2-trifluoroethoxy)pyridin-3-yl)methyl)-1H-pyrazole-4-carboxamide], the EC50 was 40 to 200 nM.

Molecule `O=C(Nc1c[nH]c2cc(F)c(Cl)cc12)c1cc(Cc2ccc(C(F)(F)F)cc2)n(C(F)F)n1` [Compound 166, N-(5-chloro-6-fluoro-1H-indol-3-yl)-1-(difluoromethyl)-5-(4-(trifluoromethyl)benzyl)-1H-pyrazole-3-carboxamide] yielded an EC50 of 200 to 1000 nM.

Molecule `Cc1cc(C(=O)Nc2c[nH]c3cc(F)c(F)cc23)nn1C1CCCCC1` [Compound 140, 1-cyclohexyl-N-(5,6-difluoro-1H-indol-3-yl)-5-methyl-1H-pyrazole-3-carboxamide] yielded an EC50 of 5000 to 100000 nM.

On to `O=C(Nc1c[nH]c2ccccc12)c1cncn1Cc1ccc(C(F)(F)F)c(Cl)c1` [Compound 132, 1-(3-chloro-4-(trifluoromethyl)benzyl)-N-(1H-indol-3-yl)-1H-imidazole-5-carboxamide], for which the EC50 was in the range of 1000 to 5000 nM.

`CC(C)(C)OC(=O)N1CCC(n2cc(C(=O)Nc3c[nH]c4cc(F)c(F)cc34)nn2)CC1` [Compound 169, tert-butyl 4-(4-((5,6-difluoro-1H-indol-3-yl)carbamoyl)-1H-1,2,3-triazol-1-yl)piperidine-1-carboxylate] showed an EC50 of 1000 to 5000 nM.

For the molecule `O=C(Nc1c[nH]c2cc(F)c(F)cc12)c1cnn(CCOc2cccnc2)c1` [Compound 124, N-(5,6-difluoro-1H-indol-3-yl)-1-(2-(pyridin-3-yloxy)ethyl)-1H-pyrazole-4-carboxamide], the EC50 was 5000 to 100000 nM.

Consider `Cn1nc(C(=O)Nc2c[nH]c3cc(F)c(F)cc23)cc1-c1ccccc1` [Compound 172, N-(5,6-difluoro-1H-indol-3-yl)-1-methyl-5-phenyl-1H-pyrazole-3-carboxamide], for which the EC50 lay within 200 to 1000 nM.

The molecule `CC(C)n1cc(-c2ccc3[nH]cc(NC(=O)c4ccn(Cc5ccc(C(F)(F)F)cc5)n4)c3c2)cn1` [Compound 133, N-(5-(1-isopropyl-1H-pyrazol-4-yl)-1H-indol-3-yl)-1-(4-(trifluoromethyl)benzyl)-1H-pyrazole-3-carboxamide] had an EC50 of 200 to 1000 nM.

Regarding `O=C(Nc1c[nH]c2cc(Cl)ccc12)c1cnn(Cc2ccc(C(F)(F)F)cc2)c1` [Compound 102, N-(6-chloro-1H-indol-3-yl)-1-[[4-(trifluoromethyl)phenyl]methyl]pyrazole-4-carboxamide], the EC50 was in the range of 200 to 1000 nM.

Take `O=C(Nc1c[nH]c2cc(F)c(F)cc12)c1csc(-c2cccc(C(F)(F)F)c2)n1` [Compound 101, N-(5,6-difluoro-1H-indol-3-yl)-2-(3-(trifluoromethyl)phenyl)thiazole-4-carboxamide]: the EC50 fell in the range of 200 to 1000 nM.

In turn, `COc1ccc2[nH]cc(NC(=O)c3cnn(Cc4ccc(C(F)(F)F)cc4)c3)c2n1` [Compound 118, N-(5-methoxy-1H-pyrrolo[3,2-b]pyridin-3-yl)-1-(4-(trifluoromethyl)benzyl)-1H-pyrazole-4-carboxamide] returned an EC50 of 1000 to 5000 nM.

`Cn1nc(C(=O)Nc2c[nH]c3cc(F)c(Cl)cc23)cc1Cc1ccc(C(F)(F)F)cc1` [Compound 162, N-(5-chloro-6-fluoro-1H-indol-3-yl)-1-methyl-5-(4-(trifluoromethyl)benzyl)-1H-pyrazole-3-carboxamide] yielded an EC50 of 40 to 200 nM.

Molecule `O=C(Nc1c[nH]c2ccccc12)c1ncc(-c2ccc(C(F)(F)F)cc2)[nH]1` [Compound 129, N-(1H-indol-3-yl)-5-(4-(trifluoromethyl)phenyl)-1H-imidazole-2-carboxamide] had an EC50 of 200 to 1000 nM.

Turning to `O=C(Nc1c[nH]c2cc(F)ccc12)c1cn(Cc2ccc(C(F)(F)F)cc2)cn1` [Compound 104, N-(6-fluoro-1H-indol-3-yl)-1-(4-(trifluoromethyl)benzyl)-1H-imidazole-4-carboxamide], the EC50 was in the range of 200 to 1000 nM.

The molecule `CC(C)n1cc(-c2ccc3[nH]cc(NC(=O)c4cn(-c5ccc(C(F)(F)F)cc5)cn4)c3c2)cn1` [Compound 139, N-(5-(1-isopropyl-1H-pyrazol-4-yl)-1H-indol-3-yl)-1-(4-(trifluoromethyl)phenyl)-1H-imidazole-4-carboxamide] displayed a concentration giving a half-maximal response (EC50) of 200 to 1000 nM.

Turning to `O=C(Nc1c[nH]c2cc(F)c(F)cc12)c1csc(-c2ccccc2)n1` [Compound 111, N-(5,6-difluoro-1H-indol-3-yl)-2-phenyl-1,3-thiazole-4-carboxamide], the EC50 lay in the range of 1000 to 5000 nM.

Molecule `Cc1cc(C(=O)Nc2c[nH]c3cc(F)c(F)cc23)nn1Cc1ccc(C(F)(F)F)cc1` [Compound 114, N-(5,6-difluoro-1H-indol-3-yl)-5-methyl-1-(4-(trifluoromethyl)benzyl)-1H-pyrazole-3-carboxamide] showed an EC50 of 200 to 1000 nM.

The molecule `O=C(Nc1c[nH]c2c(F)cncc12)c1ccn(Cc2ccc(C(F)(F)F)cc2)n1` [Compound 131, N-(7-fluoro-1H-pyrrolo[3,2-c]pyridin-3-yl)-1-(4-(trifluoromethyl)benzyl)-1H-pyrazole-3-carboxamide] had an EC50 of 1000 to 5000 nM.
